Patent US4260601A, “Chemical compounds” (Nyegaard & Co. A/S, priority 1979, dated 1981)
Square brackets hold non-standard residues; d marks the D form. Peptide text beside a SMILES is read from it. pGlu = O=C1CC[C@@H](C(=O)O)N1

Test: anorexigenic / biological activity of the peptide (no method described)

O=C(O)CNC(=O)[C@H](Cc1c[nH]cn1)NC(=O)[C@@H]1CCC(=O)N1 [synthetic peptide, L-(pyro)glutamyl-L-histidyl-glycine] ([pGlu]-His-Gly-OH)
biological activity of the synthetic peptide versus the biogenic material isolated from urine (comparison with biogenic material isolated from urine): comparable biological activity
anorexigenic properties (statement in words, peptide found in the urine of patients suffering from severe anorexia): possesses interesting anorexigenic properties
